Experimental findings from the SangsterLogP compilation are described below.

Assay in data set [1]: not given
The source holds these as a separate data set.

Data set [2] can be described thus: method code SF-AS, from PMID: 4096735. Conditions: pH 7.4.
Assay in data set [3]: not given
This is another data set of the same source.

Assay in data set [4]: not given
This is another data set of the same source.

Data set [5] is described as follows: from Kyomura, N., Fukuchi, T., Kohyama, Y., & Motojima, S. (1990). Biological characteristics of new acaricide MK-239. In Brighton Crop Protection Conference, Pests and Diseases - 1990 (Vol. 1, pp. ….
Data set [6] in a line: method code SF-AS, from DOI: 10.1016/0048-3575(88)90061-2.
Data set [7] is described as follows: method code SF-HPLC, from PMID: 11745753. The settings on record: pH 11.0.
Data set [8] in a line: method code SF-AS, from DOI: 10.1021/jm00170a024, PMID: 2374146.
The nature of data set [9]: method code SF-RC, from DOI: 10.1016/j.ejmech.2016.07.069, PMID: 27565554. Conditions: pH 7.4.
Assay in data set [10]: not given
This is another data set of the same source.

Data set [11] in a line: method code SF-HPLC, from Liang, J.; Deng, J. (2011). Determination of n-octanol/wanter Partition Coefficient of Mangiferin. West China Journal of Pharmaceutical Sciences, 26(2)193-195. The settings on record: pH 2.5.
Data set [12] can be described thus: method code SF-HPLC, from DOI: 10.1016/s0223-5234(02)01360-0, PMID: 12008054. Conditions: pH 7.4.
Assay in data set [13]: not given
This is another data set of the same source.

A short description of data set [14]: method code SF-GR, from DOI: 10.1021/jm00199a032, PMID: 619145.
Assay in data set [15]: not given
This is another data set of the same source.

The nature of data set [16]: method code SF, from DOI: 10.1007/978-94-011-1472-1_81.
The nature of data set [17]: method code SF-RC, from DOI: 10.1002/jlcr.1930.
Data set [18] in a line: method code SF, from DOI: 10.1007/bf02222191, PMID: 2473627.
Assay in data set [19]: not given
This is another data set of the same source.

Assay in data set [20]: not given
This is another data set of the same source.

Data set [21] is described as follows: method code SF, from DOI: 10.1021/bk-1995-0606.ch008.
Assay in data set [22]: not given
This is another data set of the same source.

Assay in data set [23]: not given
The source holds these as a separate data set.

Assay in data set [24]: not given
This is another data set of the same source.

A short description of data set [25]: method code SF-RC, from Godoy, N.; Valle, L.; Mena, P.; Gil, M. (1989). Synthesis, labeling and biodistribution of 99mTc-labelled bromoimino diacetic acids. Nucleotecnica, 9(17)25-32.
The nature of data set [26]: method code SF-HPLC, from DOI: 10.1002/jps.2600830510, PMID: 8071813.
Assay in data set [27]: not given
This is another data set of the same source.

Assay in data set [28]: not given
This is another data set of the same source.

Data set [29] is described as follows: method code SF-HPLC, from DOI: 10.1211/0022357011778025, PMID: 11732751. The settings on record: pH 5.0.
The nature of data set [30]: method code SF-AS, from DOI: 10.1021/jm00392a004, PMID: 3625703. The settings on record: pH 6.9.
Data set [31] can be described thus: method code SF-HPLC, from DOI: 10.1002/jps.2600840622. The settings on record: pH 7.0.
Assay in data set [32]: not given
The source holds these as a separate data set.

Assay in data set [33]: not given
The source holds these as a separate data set.

Data set [34] can be described thus: method code SF-AS, from DOI: 10.1002/pauz.19770060602.
The nature of data set [35]: method code SF-RC, from DOI: 10.1016/j.bmcl.2015.05.048, PMID: 26073008. Conditions: pH 7.4.
A short description of data set [36]: method code SF, from DOI: 10.1016/j.bmcl.2012.08.112, PMID: 23010264. Conditions: pH 7.4.
The nature of data set [37]: method code SF, from DOI: 10.1021/jm00123a006, PMID: 2918500. The settings on record: pH 7.4.
Data set [38] in a line: method code SF, from DOI: 10.1248/cpb.35.4144, PMID: 3435941. Conditions: pH 6.8.
Assay in data set [39]: not given
The source holds these as a separate data set.

Assay in data set [40]: not given
The source holds these as a separate data set.

Assay in data set [41]: not given
The source holds these as a separate data set.

Assay in data set [42]: not given
The source holds these as a separate data set.

Assay in data set [43]: not given
This is another data set of the same source.

As usually defined, the logP is the decadic logarithm of the partition coefficient of the neutral form, usually between octanol and water. A higher logP goes with a more lipophilic compound. In the case of `CO[C@H]1C[C@]2(C)[C@@H](O)CC[C@H]2[C@@H]2CCc3cc(O)ccc3[C@H]21`, the logP was 2.72.

The compound `O=S(=O)(c1ccc(F)cc1)C1CCN(CCc2ccc(F)cc2F)CC1` came in with a log partition coefficient (logP) in [1] of 2.47.

By logD is commonly meant the decadic logarithm of the distribution of all forms, ionised or not, between an organic phase and buffer at a given pH. A high value points to higher lipophilicity. In [2], `CCOC(=O)CCCCOc1ccc(-c2nc3c(N)nc(N)nc3nc2N)cc1` displayed a logD of 0.8.

The compound `CN1CCN2c3ccccc3Cc3ccccc3C2C1` (centres undefined) returned a logP in data set [3] of 4.

Turning to `Cc1ccc(/C(=C\CN2CCCC2)c2ccccn2)cc1`, the logP in data set [4] turned out to be 3.87.

As for `CCc1nn(C)c(C(=O)NCc2ccc(C(C)(C)C)cc2)c1Cl`, the logP in data set [5] came to 4.61.

In data set [6], `O=C(NC(=O)c1c(F)cccc1F)Nc1ccc(Oc2ncc(Cl)cc2Cl)cc1` came in with a logP of 3.27.

The compound `CCCCN1CCCCC1C(=O)Nc1c(C)cccc1C` (centres undefined) had a log distribution coefficient (logD) in data set [7] of 3.35.

For the compound `CCOP(=O)(Cc1ccc(-c2nc3ccccc3s2)cc1)OCC`, in data set [8], the logP was determined as 3.5.

For the compound `COc1cc2c(cc1I)C/C(=C\c1ccc(N(C)C)cc1)C2=O`, the logD in data set [9] was found to be 3.45.

The compound `C=CCN1CC[C@@]23CCCC[C@H]2[C@@H]1Cc1ccc(O)cc13` had a logP in data set [10] of 3.48.

The compound `O=c1c2cc(O)c(O)cc2oc2cc(O)c([C@@H]3O[C@H](CO)[C@@H](O)[C@H](O)[C@H]3O)c(O)c12` had a logD in data set [11] of 0.36.

`COc1cc2nc(N3CCN(C(=O)C4CCCO4)CC3)nc(N)c2cc1OC` (centres undefined): the logD in data set [12] turned out to be 1.14.

As to `CC(C)(C)NCC(COc1nsnc1N1CCOCC1)OC(=O)C1CCC1` (centres undefined), in data set [13], the lipophilicity (logP) turned out to be 2.36.

Compound `S=P(NN=Cc1ccccn1)(NN=Cc1ccccn1)Oc1ccccc1` came in with a logP in data set [14] of 1.62.

Turning to `CCN(CC)CCCN1c2ccccc2Sc2ccc(Cl)cc21`, the logP in data set [15] came to 6.46.

In turn, `Cc1cccc2c1Sc1ccccc1C2NC(=O)CN(C)C` (centres undefined) registered a lipophilicity (logP) in [16] of 3.24.

In turn, `COc1cc2c(cc1OS(N)(=O)=O)CC[C@@H]1[C@@H]2CC[C@]2(C)[C@@H](OS(N)(=O)=O)CC[C@@H]12` gave a logP in [17] of 2.25.

For the compound `CC(C)NCC(O)COc1ccccc1C1CCCCC1` (centres undefined), the logP in [18] amounted to 2.86.

With `CC(C)(Oc1ccccc1)C(=O)N[C@@H]1C(=O)N2[C@@H]1SC(C)(C)[C@@H]2C(=O)O`, in data set [19], the logP turned out to be 2.76.

Take `CN1CCN(CC(=O)N2c3ccccc3C(=O)Nc3cccnc32)CC1`: the logP in [20] was found to be 0.1.

The compound `O=C(Nc1ccc(F)cc1F)c1cccnc1Oc1cccc(C(F)(F)F)c1` showed a logP in data set [21] of 4.49.

`Cc1ccccc1C(OCCN(C)C)c1ccccc1` (centres undefined) had a logP in data set [22] of 3.77.

Compound `COc1ccc2c3c1O[C@H]1[C@@H](O)C=C[C@H]4[C@@H](C2)N(C)CC[C@@]341` yielded a logP in [23] of 1.22.

Compound `COC(=O)c1cc(OC)c2c(c1-c1c(CO)cc(OC)c3c1OCO3)OCO2` came in with a logP in data set [24] of 1.7.

With `CC(C)c1ccc(Br)c(C(C)C)c1NC(=O)CN(CC(=O)O)CC(=O)O`, the logP in data set [25] was 0.2.

Turning to `O=C(OCCN1CCOCC1)c1ccccc1Nc1c(Cl)cccc1Cl`, in [26], the log partition coefficient (logP) is 2.72.

`O=C(NN1C(=O)[C@@H]2[C@@H]3C=C[C@@H]([C@H]4C[C@@H]34)[C@@H]2C1=O)c1ccc(C(F)(F)F)cc1`: the lipophilicity (logP) in data set [27] came out at 2.36.

In the case of `COC(=O)C1C2CC3CCC1N3CC2=Cc1ccc(I)c(Cl)c1` (centres undefined), in data set [28], the logP is 4.25.

In data set [29], `CCN(CC)C(=O)C(C#N)=Cc1cc(OC(=O)C(C)(C)C)c(O)c([N+](=O)[O-])c1` came in with a pH-dependent lipophilicity (logD) of 2.24.

In [30], `CCCCCCCCCC1(c2ccncc2)CCC(=O)NC1=O` (centres undefined) came in with a logD of 4.64.

In turn, `CCN1CCN(c2cc3c(cc2F)c(=O)c(C(=O)O)cn3CC)CC1` yielded a logD in [31] of 0.37.

Regarding `COc1cc2c(cc1O)CC[C@@H]1C2CC[C@]2(C)[C@@H](O)CC[C@@H]12` (stereo in doubt), the logP in data set [32] was 2.86.

In data set [33], `CC1N=C2C3CC(c4ccccc4)CCC3C=CN2C1C` (centres undefined) had a logP of 3.9.

Take `O=C1CN=C(c2ccccc2)c2cc(Cl)ccc2N1CC1CC1`: the logP in data set [34] stood at 3.31.

In the case of `COc1ccc(/C=C/c2cc(=O)c3cc(I)ccc3o2)cc1OC`, the logD in data set [35] amounted to 2.14.

Compound `COCC(C1CC1)n1cc(Cl)nc(Nc2cc(C)c(OC)cc2C)c1=O` (centres undefined) returned a logD in [36] of 4.4.

`[N-]=[N+]=Nc1ccc(CCN2CCN(c3cccc(C(F)(F)F)c3)CC2)cc1I` came in with a logD in [37] of 3.33.

Compound `COC(=O)C1=C(C)NC(C)=C(P2(=O)OCCCO2)C1c1ccccc1[N+](=O)[O-]` (centres undefined) had a log distribution coefficient (logD) in [38] of 1.3.

Consider `COc1c(OC)c(OC(C)=O)c2cc(NC(C)=O)ccc2c1OC(C)=O`, for which, in data set [39], the logP stood at 2.

Regarding `CC12CCC3c4ccc(O)cc4CCC3C1CC(F)C2O` (centres undefined), the logP in data set [40] stood at 2.98.

The compound `Cc1onc(-c2ccccc2)c1C(=O)NC1C(=O)N2C1SC(C)(C)C2C(=O)O` (centres undefined) gave a logP in data set [41] of 2.34.

`CNCCC=C1c2ccccc2CCc2ccccc21` gave a logP in [42] of 4.4.

In [43], `CC[C@@H](c1ccc(O)cc1)[C@H](CCF)c1ccc(O)cc1` returned a logP of 4.03.
